Drawing on patent publication US9550763B2, “Heterocyclic ring and carbocyclic derivative” (Shionogi & Co., Ltd., priority 2012, dated 2017), this text covers IC50 for 47 compounds.

The target of assay [1] is T1, human P2X3 receptor (Homo sapiens (Human), UniProt P56373). Description: Evaluation of human P2X3 receptor inhibitory activity (Test Example 1-1, FDSS 3000, 96-well, 50 nM ATP). It counts as cell-based. Conditions: human P2X3 receptor in C6BU-1 cells; Test Example 1-1 (compounds I-001 to I-300). Summed up: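 C6BU-1 cells stably expressing human P2X3, loaded with 4 μM Fluo-3-AM (pH 7.5), preincubated 5 min with compound before 50 nM ATP challenge; fluorescence followed 4 min on FDSS 3000. IC50 derived from peak/baseline fluorescence ratio, no-compound as 0% and buffer-instead-of-ATP as 100% inhibition.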

Assay [2] has as its target T1, human P2X3 receptor. Description: Evaluation of human P2X3 receptor inhibitory activity (Test Example 1-2, FLIPR 384, 384-well, 150 nM ATP). The note with it: human P2X3 receptor in C6BU-1 cells; Test Example 1-2 (compounds I-301 to I-483); read-out: P2X3 IC50. It counts as cell-based. On the procedure: Stably expressing cell line (C6BU-1 cell transfected with human P2X3 receptor gene (GenBank accession number Y07683) was used. The cells were seeded in a 384-well microtiter plate at a concentration of 3000 cells/well and cultured in the medium (7.0% fetal bovine serum, 7.0% horse serum, 1% antibiotic and antifungal in DMEM) for one day at 37° C. under 5% carbon dioxide atmosphere. The medium was replaced with 4 μM Fluo-3-AM solution (20 mM HEPES, […], 5.27 mM KCl, 0.9 mM MgCl2, 1.26 mM CaCl2, 5.6 mM D-glucose, 2.5 mM probenecid, 0.5% BSA, and 0.04% Pluronic F-127, pH 7.5) and incubated at 37° C. under 5% dioxide carbon atmosphere for one hour. The plate was washed with washing buffer (20 mM HEPES, 137 mM NaCl, 5.27 mM KCl, 0.9 mM MgCl2, 1.26 mM CaCl2, 5.6 mM D-glucose, 2.5 mM probenecid, pH7.5), and each well was added with 20 μL of this buffer. The plate was placed in High-Throughput Screening System FLIPR 384 (Molecular Device Co.). Measurement of fluorescence intensity by FLIPR 384 was started, and 20 μL of DMSO solutions containing different concentrations of the test compound as prepared by dilution with dilution buffer (20 mM HEPES, 137 mM NaCl, 5.27 mM KCl, 0.9 mM MgCl2, 1.26 mM CaCl2, 5.6 mM D-glucose, 2.5 mM probenecid, 0.1% Pluronic F-127, pH 7.5) were dispensed to each well through the built-in automatic dispenser. Five minutes after, 150 nM ATP solution (25 μL) prepared by dilution with the dilution buffer was dispensed through the built-in automatic dispenser, and the measurement of fluorescence intensity was continued for 4 min. For each well, the specific maximum fluorescence intensity was calculated as the ratio of the maximum fluorescence intensity after addition of the ATP solution to the fluorescence intensity at the starting of the measurement. The 50% inhibitory concentration (IC50) was calculated under the assumption that the specific maximum fluorescence intensity without test compound is 0% inhibition and that the specific maximum fluorescence intensity when the dilution buffer was added in place of ATP solution is 100% inhibition, to evaluate the inhibitory activity of the test compound. The specific maximum fluorescence intensity and IC50 were calculated using Spotfire (Science & Technology Systems, Inc.)
The data of the compounds I-001 to I-300 are the results by the method mentioned in Test Example 1-1, and the data of the compounds I-301 to I-483 are the results by the method mentioned in Test Example 1-2.

T1 sequence (P56373 whole entry): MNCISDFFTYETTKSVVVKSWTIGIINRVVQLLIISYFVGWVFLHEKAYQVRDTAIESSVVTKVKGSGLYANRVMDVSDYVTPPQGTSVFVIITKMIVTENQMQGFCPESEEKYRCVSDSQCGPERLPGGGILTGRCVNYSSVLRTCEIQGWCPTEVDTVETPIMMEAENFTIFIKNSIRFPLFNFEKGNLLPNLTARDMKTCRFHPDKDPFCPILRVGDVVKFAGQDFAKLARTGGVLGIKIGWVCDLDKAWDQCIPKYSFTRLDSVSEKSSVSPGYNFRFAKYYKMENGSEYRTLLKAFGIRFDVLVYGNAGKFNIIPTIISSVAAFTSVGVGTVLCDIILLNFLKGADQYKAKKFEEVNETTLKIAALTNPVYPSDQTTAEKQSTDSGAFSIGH

One may read the IC50 as the concentration needed to halve the response being measured. In turn, `O=C(Nc1c[nH]/c(=N\c2ccc(Oc3ccon3)cc2)n(Cc2ccc(Cl)cc2)c1=O)c1ccncc1` [Compound I-266] returned a half-maximal inhibitory concentration (IC50) against human P2X3 receptor [1] of 0.068 µM.
The same measure, in the same setting: the same measure for `O=C(Nc1c[nH]/c(=N\c2ccc(Oc3ccon3)cc2)n(Cc2ccc(Cl)cc2)c1=O)c1ccoc1` [Compound I-267]: 0.045 µM; for `O=C(Nc1c[nH]/c(=N\c2ccc(Oc3ccon3)cc2)n(Cc2ccc(Cl)cc2)c1=O)c1cocn1` [Compound I-268]: 0.085 µM.
The same measure, in the same setting: the same measure for `Cc1oncc1C(=O)Nc1c[nH]/c(=N\c2ccc(Oc3ccon3)cc2)n(Cc2ccc(Cl)cc2)c1=O` [Compound I-269]: 0.016 µM; for `CC(c1ccc(Cl)cc1)n1cc(C(=O)NC2CCOCC2)c(=O)nc1Nc1ccc(Oc2cccc(F)n2)cc1` (centres unmarked) [Compound I-270]: 0.175 µM.
Take `O=c1c(-c2ccccn2)c[nH]/c(=N\c2ccc(Oc3ccon3)cc2)n1Cc1ccc(Cl)cc1` [Compound I-272]: the half-maximal inhibitory concentration (IC50) on human P2X3 receptor [1] is 0.211 µM.
As to `O=c1c(-c2cccnc2)c[nH]/c(=N\c2ccc(Oc3ccon3)cc2)n1Cc1ccc(Cl)cc1` [Compound I-273], it took 0.201 µM to reach half-maximal inhibition on human P2X3 receptor [1] (IC50).
The same measure, in the same setting: then `O=c1c(-c2ccncc2)c[nH]/c(=N\c2ccc(Oc3ccon3)cc2)n1Cc1ccc(Cl)cc1` [Compound I-274], with 0.356 µM; and `O=C(Nc1c[nH]/c(=N\c2ccc(Oc3ccon3)cc2)n(Cc2ccc(Cl)cn2)c1=O)C1CCOCC1` [Compound I-275], with 0.051 µM; and `CCC(=O)Nc1c[nH]/c(=N\c2ccc(Oc3ccnc(C#N)c3)cc2)n(Cc2ccc(Cl)cn2)c1=O` [Compound I-276], with 0.165 µM.
The compound `CCC(=O)Nc1c[nH]/c(=N\c2ccc(Oc3ccnc(C(N)=O)c3)cc2)n(Cc2ccc(Cl)cn2)c1=O` [Compound I-277] returned a half-maximal inhibitory concentration (IC50) on human P2X3 receptor [1] of 0.172 µM.
Same read-out and setting: then `Cc1cnc(-c2c[nH]/c(=N\c3ccc(Oc4cccc(C#N)n4)cc3)n(Cc3ccc(Cl)cc3)c2=O)o1` [Compound I-278, 1-(4-chlorobenzyl)-2-[4-(6-cyano-2-pyridyloxy)phenylamino]-5-(5-methyloxazol-2-yl)pyrimidin-6(1H)-one], with 0.02 µM; and `O=C(NC1CCOCC1)c1cn(Cc2ccccc2)c(Nc2ccc(Oc3cccc(F)n3)cc2)nc1=O` [Compound I-280], with 0.139 µM; and `O=C(NC1CCOCC1)c1cn(Cc2ccc(F)cc2)c(Nc2ccc(Oc3cccc(F)n3)cc2)nc1=O` [Compound I-281], with 0.041 µM.
On the same count and under the same terms, the same measure for `Cc1ccc(Cn2cc(C(=O)NC3CCOCC3)c(=O)nc2Nc2ccc(Oc3cccc(F)n3)cc2)cc1` [Compound I-282]: 0.006 µM.
Same read-out and setting: the same measure for `O=C(NC1CCOCC1)c1cn(Cc2cccc(F)c2)c(Nc2ccc(Oc3cccc(F)n3)cc2)nc1=O` [Compound I-283]: 0.226 µM; for `O=C(NC1CCOCC1)c1cn(Cc2ccccc2F)c(Nc2ccc(Oc3cccc(F)n3)cc2)nc1=O` [Compound I-284]: 0.042 µM.
The compound `CCC(=O)Nc1c[nH]/c(=N\c2ccc(Oc3ccnc(C(=O)OC)c3)cc2)n(Cc2ccc(Cl)cn2)c1=O` [Compound I-287] gave a half-inhibitory concentration (IC50) on human P2X3 receptor [1] of 0.356 µM.
Take `Cc1cnc(-c2c[nH]/c(=N\c3ccc(Oc4cccc(C(N)=O)n4)cc3)n(Cc3ccc(Cl)cc3)c2=O)o1` [Compound I-288]: on human P2X3 receptor [1], half-maximal inhibition (IC50) required 0.015 µM.
With `CCC(=O)Nc1c[nH]/c(=N\c2ccc(Oc3ccnc(C(=O)O)c3)cc2)n(Cc2ccc(Cl)cn2)c1=O` [Compound I-289], the IC50 against human P2X3 receptor [1] came to 0.024 µM.
In turn, `Cc1cnc(-c2c[nH]/c(=N\c3ccc(Oc4cccc(C(=O)O)n4)cc3)n(Cc3ccc(Cl)cc3)c2=O)o1` [Compound I-290, 1-(4-chlorobenzyl)-2-[4-(6-hydroxycarbonyl-2-pyridyloxy)phenylamino]-5-(5-methyloxazol-2-yl)pyrimidin-6(1H)-one] gave an IC50 on human P2X3 receptor [1] of 0.004 µM.
The same measure, in the same setting: the same measure for `Cc1cnc(-c2c[nH]/c(=N\c3ccc(Oc4ccon4)cc3)n(Cc3ccc(Cl)cc3)c2=O)o1` [Compound I-294]: 0.084 µM; for `O=C(NC1CCOCC1)c1cn(Cc2ccccn2)c(Nc2ccc(Oc3cccc(F)n3)cc2)nc1=O` [Compound I-295]: 0.618 µM; for `CN(C)C(=O)CNC(=O)c1cn(Cc2ccc(Cl)cc2)c(Nc2ccc(Oc3ccc(F)cn3)cc2)nc1=O` [Compound I-297]: 0.021 µM.
Still for that read-out and setting: the same measure for `Cc1ccc(Oc2ccc(Nc3nc(=O)c(C(=O)NCC(=O)N(C)C)cn3Cc3ccc(Cl)cc3)cc2)nn1` [Compound I-298]: 0.023 µM.
Same read-out and setting: the same measure for `CN(C)C(=O)CNC(=O)c1cn(Cc2ccc(Cl)cc2)c(Nc2ccc(Oc3cccc(F)n3)cc2)nc1=O` [Compound I-299]: 0.018 µM; for `O=C(Nc1cnc(Nc2ccc3nc(C(F)F)sc3c2)n(Cc2ccc(Cl)cc2)c1=O)C1CCOCC1` [Compound I-300]: 0.015 µM.
As for `CCCn1c(=O)c(F)c(Nc2ccc(Oc3cccc(C#N)n3)c(C)n2)n(Cc2ccc(Cl)cc2)c1=O` [Compound I-301], the IC50 at human P2X3 receptor [2] was 0.163 µM.
Same read-out and setting: the same measure for `CCCn1c(=O)c(F)c(Nc2ccc(Oc3cccc(C(=O)O)c3)cc2)n(Cc2ccc(Cl)cc2)c1=O` [Compound I-303]: 0.109 µM; for `CCC(=O)Nc1c[nH]/c(=N\c2ccc(Oc3ccc(C(=O)OC)nn3)cc2)n(Cc2ccc(Cl)cc2)c1=O` [Compound I-305]: 0.005 µM.
Still for that read-out and setting: then `CCC(=O)Nc1c[nH]/c(=N\c2ccc(Oc3ccc(C#N)nn3)cc2)n(Cc2ccc(Cl)cc2)c1=O` [Compound I-306], with 0.019 µM.
Same read-out and setting: then `O=c1c(Nc2ccon2)c[nH]/c(=N\c2ccc(Oc3ccon3)cc2)n1Cc1ccc(Cl)cc1` [Compound I-307], with 0.021 µM; and `Cc1noc(-c2c[nH]/c(=N\c3ccc(Oc4cccc(C#N)n4)cc3)n(Cc3ccc(Cl)cc3)c2=O)n1` [Compound I-310], with 0.016 µM; and `CCOC(=O)c1cnc(Oc2ccc(/N=c3\[nH]cc(-c4nc(C)no4)c(=O)n3Cc3ccc(Cl)cc3)cc2)s1` [Compound I-311], with 0.031 µM.
Take `COC(=O)c1ccc(Oc2ccc(/N=c3\[nH]cc(-c4nc(C)no4)c(=O)n3Cc3ccc(Cl)cc3)cc2)nn1` [Compound I-312]: the IC50 at human P2X3 receptor [2] turned out to be 0.007 µM.
On the same count and under the same terms, the same measure for `Cc1noc(-c2c[nH]/c(=N\c3ccc(Oc4ncc(C(=O)O)s4)cc3)n(Cc3ccc(Cl)cc3)c2=O)n1` [Compound I-314]: 0.01 µM; for `Cc1noc(-c2c[nH]/c(=N\c3ccc(Oc4ccc(C(N)=O)nn4)cc3)n(Cc3ccc(Cl)cc3)c2=O)n1` [Compound I-315]: 0.01 µM; for `Cc1noc(-c2c[nH]/c(=N\c3ccc(Oc4cccc(C(N)=O)n4)cc3)n(Cc3ccc(Cl)cc3)c2=O)n1` [Compound I-316]: 0.013 µM.
On the same count and under the same terms, the same measure for `Cc1noc(-c2c[nH]/c(=N\c3ccc(Oc4ccc(C(=O)O)nn4)cc3)n(Cc3ccc(Cl)cc3)c2=O)n1` [Compound I-317]: 0.013 µM; for `O=c1c(Nc2ccon2)c[nH]/c(=N\c2ccc(Oc3ccc(F)cn3)cc2)n1Cc1ccc(Cl)cc1` [Compound I-318]: 0.027 µM.
Same read-out and setting: the same measure for `N#Cc1cccc(Oc2ccc(/N=c3\[nH]cc(Nc4ccon4)c(=O)n3Cc3ccc(Cl)cc3)cc2)n1` [Compound I-319]: 0.019 µM; for `COC(=O)c1cc(Oc2ccc(/N=c3\[nH]cc(Nc4ccon4)c(=O)n3Cc3ccc(Cl)cc3)cc2)ccn1` [Compound I-320]: 0.019 µM; for `CC(C)c1c[nH]/c(=N\c2ccc(Oc3cccc(C#N)n3)cc2)n(Cc2ccc(Cl)cc2)c1=O` [Compound I-321]: 0.15 µM.
Consider `COCCn1c(=O)cc(Nc2ccc(Oc3cccc(C#N)n3)c(C)n2)n(Cc2ccc(Cl)cc2)c1=O` [Compound I-322], for which the 50% inhibitory concentration (IC50) at human P2X3 receptor [2] came out at 0.005 µM.
The same measure, in the same setting: then `COC(=O)[C@H](C)[C@H](C)n1c(=O)cc(Nc2ccc(Oc3ccc(F)cn3)cc2)n(Cc2ccc(Cl)cc2)c1=O` [Compound I-323], with 0.026 µM; and `COCCn1c(=O)cc(Nc2ccc(Oc3cccc(C(=O)O)n3)c(C)n2)n(Cc2ccc(Cl)cc2)c1=O` [Compound I-324], with 0.014 µM.
Still for that read-out and setting: the same measure for `C[C@@H](C(=O)O)[C@H](C)n1c(=O)cc(Nc2ccc(Oc3ccc(F)cn3)cc2)n(Cc2ccc(Cl)cc2)c1=O` [Compound I-325]: 0.011 µM.
